Experimental data as given in patent US20260206753A1, “HERBICIDAL DERIVATIVES” (SYNGENTA CROP PROTECTION AG, priority 2022, published 2026).

Columns and labels:
Assay type in all cases: in vivo
Setaria faberi (SETFA) [1] = assay: Pre-emergence herbicide test, glasshouse pots; conditions: 1000 g/ha, evaluated after 13 days
[2] = tested on: Amaranthus palmeri (AMAPA); assay: Pre-emergence herbicide test, glasshouse pots; conditions: 1000 g/ha, evaluated after 13 days
[3] = tested on: Ipomoea hederacea (IPOHE); assay: Pre-emergence herbicide test, glasshouse pots; conditions: 1000 g/ha, evaluated after 13 days
[4] = tested on: Amaranthus retoflexus (AMARE); assay: Post-emergence herbicide test, glasshouse pots; conditions: sprayed after 8 days cultivation, 1000 g/ha, evaluated after 13 days
Protocol: (§1) Seeds of a variety of test species are sown in standard soil in pots (Setaria faberi (SETFA), Echinochloa crus-galli (ECHCG), Ipomoea hederacea (IPOHE), Amaranthus palmeri (AMAPA), Zea mays (ZEAMX), Amaranthus retoflexus (AMARE), Solanum nigrum (SOLNI), Lolium perenne (LOLPE), Abutilon theophrasti (ABUTH)). After 8 days cultivation under controlled conditions in a glasshouse (at 24° C./16° C., day/night; 14 hours light; 65% humidity), the plants are sprayed with an aqueous spray solution derived from the formulation of the technical active ingredient in acetone/water (50:50) solution containing 0.5% Tween 20 (polyoxyethelyene sorbitan monolaurate, CAS RN 9005-64-5). Compounds are applied at 1000 g/ha unless otherwise stated. The test plants are then grown in a glasshouse under controlled conditions in a glasshouse (at 24° C./16° C., day/night; 14 hours light; 65% humidity) and watered twice daily. After 13 days the test is evaluated for the percentage damage caused to the plant. The biological activities are shown in the following table on a five-point scale (5=81-100%; 4=61-80%; 3=41-60%; 2=21-40%; 1=0-20%).

[5] = tested on: Ipomoea hederacea (IPOHE); assay: Post-emergence herbicide test, glasshouse pots; conditions: sprayed after 8 days cultivation, 1000 g/ha, evaluated after 13 days
Protocol: as §1

Zea mays (ZEAMX) [6] = assay: Post-emergence herbicide test, glasshouse pots; conditions: sprayed after 8 days cultivation, 1000 g/ha, evaluated after 13 days
Protocol: as §1

[7] = tested on: Amaranthus palmeri (AMAPA); assay: Post-emergence herbicide test, glasshouse pots; conditions: sprayed after 8 days cultivation, 1000 g/ha, evaluated after 13 days
Protocol: as §1

Setaria faberi (SETFA) [8] = assay: Post-emergence herbicide test, glasshouse pots; conditions: sprayed after 8 days cultivation, 1000 g/ha, evaluated after 13 days
Protocol: as §1

[9] = tested on: Echinochloa crus-galli (ECHCG); assay: Post-emergence herbicide test, glasshouse pots; conditions: sprayed after 8 days cultivation, 1000 g/ha, evaluated after 13 days
Protocol: as §1

Zea mays (ZEAMX) [10] = assay: Pre-emergence herbicide test, glasshouse pots; conditions: 1000 g/ha, evaluated after 13 days
[11] = tested on: Amaranthus retoflexus (AMARE); assay: Pre-emergence herbicide test, glasshouse pots; conditions: 1000 g/ha, evaluated after 13 days
[12] = tested on: Echinochloa crus-galli (ECHCG); assay: Pre-emergence herbicide test, glasshouse pots; conditions: 1000 g/ha, evaluated after 13 days

CCn1cc(-c2cccc(OC(F)(F)F)c2F)c(=O)c(C(=O)O)c1-c1ccc(Cl)c(Cl)c1 [Compound 11, 2-(3,4-dichlorophenyl)-1-ethyl-5-[2-fluoro-3-(trifluoromethoxy)phenyl]-4-oxo-pyridine-3-carboxylic acid]
SEFTA, percentage damage caused to the plant (five-point scale) (Setaria faberi (SETFA) [1]): 3 (3=41-60%) | AMAPA, percentage damage caused to the plant (five-point scale) [2]: 2 (2=21-40%) | IPOHE, percentage damage caused to the plant (five-point scale) [3]: 3 (3=41-60%) | AMARE, percentage damage caused to the plant (five-point scale) [4]: 4 (4=61-80%) | IPOHE, percentage damage caused to the plant (five-point scale) [5]: 3 (3=41-60%) | ZEAMX, percentage damage caused to the plant (five-point scale) (Zea mays (ZEAMX) [6]): 1 (1=0-20%) | AMAPA, percentage damage caused to the plant (five-point scale) [7]: 4 (4=61-80%) | SEFTA, percentage damage caused to the plant (five-point scale) (Setaria faberi (SETFA) [8]): 2 (2=21-40%) | ECHCG, percentage damage caused to the plant (five-point scale) [9]: 4 (4=61-80%) | ZEAMX, percentage damage caused to the plant (five-point scale) (Zea mays (ZEAMX) [10]): 0 | AMARE, percentage damage caused to the plant (five-point scale) [11]: 2 (2=21-40%) | ECHCG, percentage damage caused to the plant (five-point scale) [12]: 3 (3=41-60%)

CCn1cc(-c2cc(C(=O)OC(C)C)ccc2F)c(=O)c(C(=O)O)c1-c1ccc(Cl)c(Cl)c1 [Compound 8, 2-(3,4-dichlorophenyl)-1-ethyl-5-(2-fluoro-5-isopropoxycarbonyl-phenyl)-4-oxo-pyridine-3-carboxylic acid]
SEFTA, percentage damage caused to the plant (five-point scale) (Setaria faberi (SETFA) [1]): 5 (5=81-100%) | AMAPA, percentage damage caused to the plant (five-point scale) [2]: 5 (5=81-100%) | IPOHE, percentage damage caused to the plant (five-point scale) [3]: 1 (1=0-20%) | AMARE, percentage damage caused to the plant (five-point scale) [4]: 3 (3=41-60%) | IPOHE, percentage damage caused to the plant (five-point scale) [5]: 3 (3=41-60%) | ZEAMX, percentage damage caused to the plant (five-point scale) (Zea mays (ZEAMX) [6]): 3 (3=41-60%) | AMAPA, percentage damage caused to the plant (five-point scale) [7]: 3 (3=41-60%) | SEFTA, percentage damage caused to the plant (five-point scale) (Setaria faberi (SETFA) [8]): 4 (4=61-80%) | ECHCG, percentage damage caused to the plant (five-point scale) [9]: 3 (3=41-60%) | ZEAMX, percentage damage caused to the plant (five-point scale) (Zea mays (ZEAMX) [10]): 1 (1=0-20%) | AMARE, percentage damage caused to the plant (five-point scale) [11]: 3 (3=41-60%) | ECHCG, percentage damage caused to the plant (five-point scale) [12]: 5 (5=81-100%)

CCn1cc(-c2cc(OC(F)(F)F)ccc2Cl)c(=O)c(C(=O)O)c1-c1ccc(Cl)c(Cl)c1 [Compound 7, 5-[2-chloro-5-(trifluoromethoxy)phenyl]-2-(3,4-dichlorophenyl)-1-ethyl-4-oxo-pyridine-3-carboxylic acid]
SEFTA, percentage damage caused to the plant (five-point scale) (Setaria faberi (SETFA) [1]): 5 (5=81-100%) | AMAPA, percentage damage caused to the plant (five-point scale) [2]: 3 (3=41-60%) | IPOHE, percentage damage caused to the plant (five-point scale) [3]: 1 (1=0-20%) | AMARE, percentage damage caused to the plant (five-point scale) [4]: 4 (4=61-80%) | IPOHE, percentage damage caused to the plant (five-point scale) [5]: 3 (3=41-60%) | ZEAMX, percentage damage caused to the plant (five-point scale) (Zea mays (ZEAMX) [6]): 3 (3=41-60%) | AMAPA, percentage damage caused to the plant (five-point scale) [7]: 4 (4=61-80%) | SEFTA, percentage damage caused to the plant (five-point scale) (Setaria faberi (SETFA) [8]): 5 (5=81-100%) | ECHCG, percentage damage caused to the plant (five-point scale) [9]: 4 (4=61-80%) | ZEAMX, percentage damage caused to the plant (five-point scale) (Zea mays (ZEAMX) [10]): 3 (3=41-60%) | AMARE, percentage damage caused to the plant (five-point scale) [11]: 4 (4=61-80%) | ECHCG, percentage damage caused to the plant (five-point scale) [12]: 4 (4=61-80%)

CCn1cc(-c2ccc(Cl)cc2F)c(=O)c(C(=O)O)c1-c1ccc(Cl)c(Cl)c1 [Compound 2, 5-(4-chloro-2-fluoro-phenyl)-2-(3,4-dichlorophenyl)-1-ethyl-4-oxo-pyridine-3-carboxylic acid]
SEFTA, percentage damage caused to the plant (five-point scale) (Setaria faberi (SETFA) [1]): 5 (5=81-100%) | AMAPA, percentage damage caused to the plant (five-point scale) [2]: 5 (5=81-100%) | IPOHE, percentage damage caused to the plant (five-point scale) [3]: 3 (3=41-60%) | AMARE, percentage damage caused to the plant (five-point scale) [4]: 4 (4=61-80%) | IPOHE, percentage damage caused to the plant (five-point scale) [5]: 3 (3=41-60%) | ZEAMX, percentage damage caused to the plant (five-point scale) (Zea mays (ZEAMX) [6]): 4 (4=61-80%) | AMAPA, percentage damage caused to the plant (five-point scale) [7]: 5 (5=81-100%) | SEFTA, percentage damage caused to the plant (five-point scale) (Setaria faberi (SETFA) [8]): 4 (4=61-80%) | ECHCG, percentage damage caused to the plant (five-point scale) [9]: 4 (4=61-80%) | ZEAMX, percentage damage caused to the plant (five-point scale) (Zea mays (ZEAMX) [10]): 3 (3=41-60%) | AMARE, percentage damage caused to the plant (five-point scale) [11]: 1 (1=0-20%) | ECHCG, percentage damage caused to the plant (five-point scale) [12]: 5 (5=81-100%)

CCn1cc(-c2cc(C(=O)OC(C)C)c(Cl)cc2F)c(=O)c(C(=O)O)c1-c1ccc(Cl)c(Cl)c1 [Compound 6, 5-(4-chloro-2-fluoro-5-isopropoxycarbonyl-phenyl)-2-(3,4-dichlorophenyl)-1-ethyl-4-oxo-pyridine-3-carboxylic acid]
SEFTA, percentage damage caused to the plant (five-point scale) (Setaria faberi (SETFA) [1]): 5 (5=81-100%) | AMAPA, percentage damage caused to the plant (five-point scale) [2]: 5 (5=81-100%) | IPOHE, percentage damage caused to the plant (five-point scale) [3]: 4 (4=61-80%) | AMARE, percentage damage caused to the plant (five-point scale) [4]: 5 (5=81-100%) | IPOHE, percentage damage caused to the plant (five-point scale) [5]: 3 (3=41-60%) | ZEAMX, percentage damage caused to the plant (five-point scale) (Zea mays (ZEAMX) [6]): 4 (4=61-80%) | AMAPA, percentage damage caused to the plant (five-point scale) [7]: 5 (5=81-100%) | SEFTA, percentage damage caused to the plant (five-point scale) (Setaria faberi (SETFA) [8]): 5 (5=81-100%) | ECHCG, percentage damage caused to the plant (five-point scale) [9]: 5 (5=81-100%) | ZEAMX, percentage damage caused to the plant (five-point scale) (Zea mays (ZEAMX) [10]): 5 (5=81-100%) | AMARE, percentage damage caused to the plant (five-point scale) [11]: 5 (5=81-100%) | ECHCG, percentage damage caused to the plant (five-point scale) [12]: 5 (5=81-100%)

CCn1cc(-c2ccc(Cl)cc2)c(=O)c(C(=O)O)c1-c1ccc(Cl)c(Cl)c1 [Compound 1, 5-(4-chlorophenyl)-2-(3,4-dichlorophenyl)-1-ethyl-4-oxo-pyridine-3-carboxylic acid]
SEFTA, percentage damage caused to the plant (five-point scale) (Setaria faberi (SETFA) [1]): 5 (5=81-100%) | AMAPA, percentage damage caused to the plant (five-point scale) [2]: 1 (1=0-20%) | IPOHE, percentage damage caused to the plant (five-point scale) [3]: 3 (3=41-60%) | AMARE, percentage damage caused to the plant (five-point scale) [4]: 3 (3=41-60%) | IPOHE, percentage damage caused to the plant (five-point scale) [5]: 3 (3=41-60%) | ZEAMX, percentage damage caused to the plant (five-point scale) (Zea mays (ZEAMX) [6]): 3 (3=41-60%) | AMAPA, percentage damage caused to the plant (five-point scale) [7]: 3 (3=41-60%) | SEFTA, percentage damage caused to the plant (five-point scale) (Setaria faberi (SETFA) [8]): 4 (4=61-80%) | ECHCG, percentage damage caused to the plant (five-point scale) [9]: 4 (4=61-80%) | ZEAMX, percentage damage caused to the plant (five-point scale) (Zea mays (ZEAMX) [10]): 1 (1=0-20%) | AMARE, percentage damage caused to the plant (five-point scale) [11]: 0 | ECHCG, percentage damage caused to the plant (five-point scale) [12]: 5 (5=81-100%)

CCn1cc(-c2cc(OC(F)(F)F)ccc2F)c(=O)c(C(=O)O)c1-c1ccc(Cl)c(Cl)c1 [Compound 5, 2-(3,4-dichlorophenyl)-1-ethyl-5-[2-fluoro-5-(trifluoromethoxy)phenyl]-4-oxo-pyridine-3-carboxylic acid]
SEFTA, percentage damage caused to the plant (five-point scale) (Setaria faberi (SETFA) [1]): 5 (5=81-100%) | AMAPA, percentage damage caused to the plant (five-point scale) [2]: 4 (4=61-80%) | IPOHE, percentage damage caused to the plant (five-point scale) [3]: 4 (4=61-80%) | AMARE, percentage damage caused to the plant (five-point scale) [4]: 4 (4=61-80%) | IPOHE, percentage damage caused to the plant (five-point scale) [5]: 4 (4=61-80%) | ZEAMX, percentage damage caused to the plant (five-point scale) (Zea mays (ZEAMX) [6]): 4 (4=61-80%) | AMAPA, percentage damage caused to the plant (five-point scale) [7]: 4 (4=61-80%) | SEFTA, percentage damage caused to the plant (five-point scale) (Setaria faberi (SETFA) [8]): 4 (4=61-80%) | ECHCG, percentage damage caused to the plant (five-point scale) [9]: 4 (4=61-80%) | ZEAMX, percentage damage caused to the plant (five-point scale) (Zea mays (ZEAMX) [10]): 4 (4=61-80%) | AMARE, percentage damage caused to the plant (five-point scale) [11]: 3 (3=41-60%) | ECHCG, percentage damage caused to the plant (five-point scale) [12]: 5 (5=81-100%)
